{"source": "patent US11458123B2", "about": "(Arvinas, Inc., priority 2016, dated 2022)"}
{"system": "tau protein", "assay": "Tau protein in vitro degradation assay (Western blot, Tau-13 antibody)", "format": "cell-based, human", "conditions": "SK-N-SH cells; 72 hours of incubation; tested at 300 nM, 100 nM, 33 nM and 11 nM; Western blot, Tau-13 antibody", "summary_of_the_method": "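SK-N-SH cells, seeded ≥18 h beforehand, were incubated 72 h with tau PROTACs at 1000, 300 and 100 nM or at 300, 100, 33 and 11 nM. Lysates in protease-inhibitor buffer were resolved by SDS-PAGE; tau quantified by Western blot with Tau-13 antibody recognising all human tau forms.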"}
{"smiles": "Cn1c2ccncc2c2ccc(-c3ccc(OCCCCCOCCCCCN4CC(Oc5ccc6c(c5)C(=O)N(C5CCC(=O)NC5=O)C6=O)C4)nc3)cc21", "note": "(stereo not shown) [Compound 80, 2-(2,6-dioxopiperidin-3-yl)-5-((1-(5-((5-((5-(5-methyl-5H-pyrido[4,3-b]indol-7-yl)pyridin-2-yl)oxy)pentyl)oxy)pentyl)azetidin-3-yl)oxy)isoindoline-1,3-dione]", "Degradation activity* (highest amount of degradation observed at any dosage; tau protein remaining)": "A (≤50% tau protein remaining after 72 hours of incubation with the test compound)"}
{"smiles": "Cn1c2ccncc2c2ccc(-c3cnc(O[C@H]4C[C@H](OCCCOCCCOC5CN(c6ccc7c(c6)C(=O)N(C6CCC(=O)NC6=O)C7=O)C5)C4)c(C(F)(F)F)c3)cc21", "note": "(stereo partly shown) [Compound 125, 2-(2,6-dioxopiperidin-3-yl)-5-(3-(3-(3-((1r,3r)-3-((5-(5-methyl-5H-pyrido[4,3-b]indol-7-yl)-3-(trifluoromethyl)pyridin-2-yl)oxy)cyclobutoxy)propoxy)propoxy)azetidin-1-yl)isoindoline-1,3-dione]", "Degradation activity* (highest amount of degradation observed at any dosage; tau protein remaining)": "C (>80% tau protein remaining after 72 hours of incubation with the test compound)"}
{"smiles": "Cn1c2ccncc2c2ccc(-c3ccc(O[C@H]4C[C@H](Oc5ccc(C#CCCCCOc6ccc7c(c6)C(=O)N(C6CCC(=O)NC6=O)C7=O)nn5)C4)nc3)cc21", "note": "(stereo partly shown) [Compound 134, 2-(2,6-dioxopiperidin-3-yl)-5-((6-(6-((1r,3r)-3-((5-(5-methyl-5H-pyrido[4,3-b]indol-7-yl)pyridin-2-yl)oxy)cyclobutoxy)pyridazin-3-yl)hex-5-yn-1-yl)oxy)isoindoline-1,3-dione]", "Degradation activity* (highest amount of degradation observed at any dosage; tau protein remaining)": "B (≤80% and >50% tau protein remaining after 72 hours of incubation with the test compound)"}
{"smiles": "Cn1c2ccncc2c2ccc(-c3ccc(O[C@H]4C[C@H](OCCCC(F)(F)COC5CC6(C5)CN(c5ccc7c(c5)C(=O)N(C5CCC(=O)NC5=O)C7=O)C6)C4)nc3)cc21", "note": "(stereo partly shown) [Compound 197, 5-(6-((2,2-difluoro-5-((1r,3r)-3-((5-(5-methyl-5H-pyrido[4,3-b]indol-7-yl)pyridin-2-yl)oxy)cyclobutoxy)pentyl)oxy)-2-azaspiro[3.3]heptan-2-yl)-2-(2,6-dioxopiperidin-3-yl)isoindoline-1,3-dione]", "Degradation activity (tau protein remaining; highest amount of degradation observed at any dosage)": "C (>80% tau protein remaining after 72 hours of incubation with the test compound)"}
{"smiles": "Cn1c2ccncc2c2ccc(-c3ccc(O[C@H]4C[C@H](OCCCCOCCCCCOc5ccc6c(c5)C(=O)N(C5CCC(=O)NC5=O)C6=O)C4)nc3)cc21", "note": "(stereo partly shown) [Compound 114, 2-(2,6-dioxopiperidin-3-yl)-5-((5-(4-((1r,3r)-3-((5-(5-methyl-5H-pyrido[4,3-b]indol-7-yl)pyridin-2-yl)oxy)cyclobutoxy)butoxy)pentyl)oxy)isoindoline-1,3-dione]", "Degradation activity* (highest amount of degradation observed at any dosage; tau protein remaining)": "C (>80% tau protein remaining after 72 hours of incubation with the test compound)"}
{"smiles": "O=C1CCC(N2C(=O)c3ccc(N4CCN(CCN5CCC(O[C@H]6C[C@H](Oc7ccc(-c8ccc9c(c8)[nH]c8ccncc89)cn7)C6)CC5)CC4)cc3C2=O)C(=O)N1", "note": "(stereo partly shown) [Compound 66, 5-(4-(2-(4-((1r,3r)-3-((5-(5H-pyrido[4,3-b]indol-7-yl)pyridin-2-yl)oxy)cyclobutoxy)piperidin-1-yl)ethyl)piperazin-1-yl)-2-(2,6-dioxopiperidin-3-yl)isoindoline-1,3-dione]", "Degradation activity* (highest amount of degradation observed at any dosage; tau protein remaining)": "C (>80% tau protein remaining after 72 hours of incubation with the test compound)"}
{"smiles": "Cn1c2ccncc2c2ccc(-c3ccc(O[C@H]4C[C@H](N(C)C(=O)C56CC(COCCCCOc7ccc8c(c7)C(=O)N(C7CCC(=O)NC7=O)C8=O)(C5)C6)C4)nc3)cc21", "note": "(stereo partly shown) [Compound 199, 3-((4-((2-(2,6-dioxopiperidin-3-yl)-1,3-dioxoisoindolin-5-yl)oxy)butoxy)methyl)-N-methyl-N-((1r,3r)-3-((5-(5-methyl-5H-pyrido[4,3-b]indol-7-yl)pyridin-2-yl)oxy)cyclobutyl)bicyclo[1.1.1]pentane-1-carboxamide]", "Degradation activity (tau protein remaining; highest amount of degradation observed at any dosage)": "C (>80% tau protein remaining after 72 hours of incubation with the test compound)"}
